Test results reported in patent publication US7655671B2, “Morphinan derivatives, the quaternary ammonium salts thereof substituted in position 14, method for production and use thereof” (priority 2002, dated 2010).
Counter-ions that a name gives are not always drawn.

Legend:
μ-opioid receptors = target: T1, μ-opioid receptors (Rattus norvegicus, UniProt P33535); experiment: Opioid receptor binding studies on rat's brain homogenisates with [3H]DAMGO
T1 construct: from tissue; host or cells: rat brain homogenate
T1 sequence (P33535 whole entry): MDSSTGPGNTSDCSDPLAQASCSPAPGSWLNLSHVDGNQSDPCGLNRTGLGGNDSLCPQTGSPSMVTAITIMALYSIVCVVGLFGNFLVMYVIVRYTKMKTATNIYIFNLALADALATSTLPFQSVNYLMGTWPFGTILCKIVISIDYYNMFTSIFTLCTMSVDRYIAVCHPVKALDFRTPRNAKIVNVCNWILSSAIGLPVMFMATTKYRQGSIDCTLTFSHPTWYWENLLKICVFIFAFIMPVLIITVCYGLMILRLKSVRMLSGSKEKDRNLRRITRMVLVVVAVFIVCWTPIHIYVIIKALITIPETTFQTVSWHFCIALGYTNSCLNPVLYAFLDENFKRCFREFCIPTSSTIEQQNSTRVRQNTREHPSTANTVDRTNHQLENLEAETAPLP

SMILES	melting point	Ki (μ-opioid receptors) [nM]
C=CCN1CC[C@]23c4c5ccc(OC)c4O[C@H]2C(=O)CC[C@@]3(OCCCc2ccccc2)C1C5	129 to 130 °C	
CCN1CC[C@]23c4c5ccc(OC)c4O[C@H]2C(=O)CC[C@@]3(OCCCc2ccccc2)[C@H]1C5	95 to 101 °C	
COc1ccc2c(c1O)[C@]13CCN(C)[C@H](C2)[C@]1(OCCCc1ccccc1)CCC(=O)C3	> 258 °C (dec.)	
COc1ccc2c(c1OC)[C@]13CCN(C)C(C2)[C@]1(OCCCc1ccccc1)CCC(=O)C3	110 to 115 °C	
CCO[C@@]12CCC(=O)[C@@H](C)[C@@]13CCN(C)[C@@H]2Cc1ccc(OC)c(O)c13	122 to 129 °C	
CCO[C@@]12CCC(=O)[C@@H](C)[C@@]13CCN(C)C2Cc1ccc(OC)c(OC)c13	135 to 141 °C	
COc1ccc2c(c1OC)[C@]13CCN(C)C(C2)[C@]1(O)CCC(=O)[C@H]3C	122 to 124 °C	
COc1ccc2c(c1OC)[C@]13CCN(C)[C@H](C2)[C@]1(OCc1ccccc1)CCC(=O)[C@H]3C	166 to 167 °C	
CC[N@@+]1(C)CC[C@]23c4c5ccc(O)c4O[C@H]2C(=O)CC[C@@]3(OCCCc2ccccc2)[C@H]1C5.[I-]	171 to 176 °C	
CCCCOC12CCC(=O)C3(Cc4ccccc4)Oc4c(O)ccc5c4[C@@]31CC[N+](C)(C)C2C5.[I-] (stereo partly drawn)	188 to 195 °C	
C=CC[N@+]1(C)CC[C@]23c4c5ccc(O)c4OC2(Cc2ccccc2)C(=O)CCC3(OCCCC)C1C5.[I-] (stereo partly drawn)	200 to 205 °C	
CCCCO[C@@]12CCC(=O)[C@@H]3Oc4c(O)ccc5c4[C@@]31CC[N+](C)(C)[C@@H]2C5.[I-]	180 to 185 °C	
C[N@+]1(CC2CC2)CC[C@]23c4c5ccc(O)c4O[C@H]2C(=O)CC[C@@]3(OCc2ccccc2-c2ccccc2)[C@H]1C5.[I-]	219 to 221 °C	
C[N@+]1(CC2CC2)CC[C@]23c4c5ccc(O)c4O[C@H]2C(=O)CC[C@@]3(OCc2ccc(Cl)cc2)[C@H]1C5.[I-]	214 to 219 °C	
COC12CCC(=O)C3Oc4c(O)ccc5c4[C@@]31CC[N@+](C)(CCc1ccccc1)C2C5.[I-] (stereo partly drawn)	180 to 181 °C	
O=C1CC[C@@]2(OCc3ccccc3)[C@H]3Cc4ccc(O)c5c4[C@@]2(CCN3CC2CC2)[C@H]1O5 (as salt: hydrobromid)	> 210 °C (dec.)	
Cc1ccccc1CO[C@@]12CCC(=O)[C@@H]3Oc4c(O)ccc5c4[C@@]31CCN(CC1CC1)[C@@H]2C5 (as salt: hydrochloride)	198 to 200 °C	
O=C1CC[C@@]2(OCc3ccccc3Cl)[C@H]3Cc4ccc(O)c5c4[C@@]2(CCN3CC2CC2)[C@H]1O5 (as salt: hydrochloride)	165 to 168 °C	
CCCCO[C@@]12CCC(=O)[C@@H]3Oc4c(O)ccc5c4[C@@]31CCN(CC1CC1)[C@@H]2C5 (as salt: hydrochloride)	240 °C (dec.)	
CC(C)CCO[C@@]12CCC(=O)[C@@H]3Oc4c(O)ccc5c4[C@@]31CCN(CC1CC1)[C@@H]2C5 (as salt: hydrochloride)	168 to 170 °C	

SMILES	melting point	Ki (μ-opioid receptors) [nM]
CC#COc1ccc2c3c1O[C@H]1C(=O)CC[C@@]4(OCc5cccc(Cl)c5)C(C2)N(C)CC[C@]314 (as salt: hydrochloride)	145 to 150 °C	
COc1ccc2c3c1O[C@H]1C(=O)CC[C@@]4(OCCCc5ccccc5)[C@@H](C2)N(CC2CCC2)CC[C@]314 (as salt: hydrochloride)	128 to 133 °C	
CCN1CC[C@]23c4c5ccc(O)c4O[C@H]2C(=O)CC[C@@]3(OCCCc2ccccc2)[C@H]1C5 (as salt: hydrochloride)	178 to 180 °C	
CCCN1CC[C@]23c4c5ccc(O)c4O[C@H]2C(=O)CC[C@@]3(OCCC(C)C)[C@H]1C5 (as salt: hydrochloride)	175 to 185 °C (dec.)	
COc1ccc2c(c1O)[C@]13CCN(C)[C@H](C2)[C@]1(OCc1ccccc1)CCC(=O)C3 (as salt: hydrochloride)	> 220 °C (dec.)	
COc1ccc2c(c1OC)[C@]13CCN(C)[C@H](C2)[C@]1(OCc1ccccc1)CCC(=O)C3 (as salt: hydrochloride)	140 to 145 °C	
COc1ccc2c(c1O)[C@]13CCN(C)[C@H](C2)[C@]1(OCc1ccc2ccccc2c1)CCC(=O)C3 (as salt: hydrochloride)	195 to 197 °C	
COc1ccc2c3c1O[C@H]1C(=O)CC[C@@]4(OCCCc5ccccc5)[C@@H](C2)N(CC2CC2)CC[C@]314 (as salt: hydrochloride)	130 to 133 °C	
COc1ccc2c(c1OC)[C@]13CCN(C)[C@H](C2)[C@]1(OCc1ccc2ccccc2c1)CCC(=O)C3 (as salt: hydrochloride)	165 to 170 °C	
COc1ccc2c(c1O)[C@]13CCN(C)[C@H](C2)[C@]1(OCCCc1ccccc1)CCC(=O)[C@H]3C (as salt: hydrochloride)	> 210 °C (dec.)	
COc1ccc2c3c1O[C@H]1C(=O)CC[C@@]4(OCCCc5ccccc5)C(C2)N(CC2CCCO2)CC[C@]314 (stereo partly drawn) (as salt: hydrochloride)	121 to 123 °C	
COc1ccc2c3c1O[C@H]1C(=O)CC[C@@]4(OCCCc5ccccc5)[C@@H](C2)N(CCc2ccccc2)CC[C@]314 (as salt: hydrochloride) [Compound 4, 4,5α-epoxy-3-methoxy-17-(2-phenylethyl)-14β-(3-phenylpropyloxy)morphinan-6-one hydrochloride]	128 to 130 °C	
O=C1CC[C@@]2(OCCCc3ccccc3)[C@H]3Cc4ccc(O)c5c4[C@@]2(CCN3CC2CCC2)[C@H]1O5 (as salt: hydrochloride) [Compound 7, 17-cyclobutylmethyl-4,5α-epoxy-3-hydroxy-14β-(3-phenylpropyloxy)morphinan-6-one hydrochloride]	> 227 °C (dec.)	
O=C1CC[C@@]2(OCCCc3ccccc3)[C@H]3Cc4ccc(O)c5c4[C@@]2(CCN3CCc2ccccc2)[C@H]1O5 (as salt: hydrochloride) [Compound 9, 4,5α-epoxy-3-hydroxy-17-(2-phenylethyl)-14β-(3-phenylpropyloxy)morphinan-6-one hydrochloride]	> 218 °C (dec.)	
O=C1CC[C@@]2(OCCCc3ccccc3)C3Cc4ccc(O)c5c4[C@@]2(CCN3CC2CCCO2)[C@H]1O5 (stereo partly drawn) (as salt: hydrochloride) [Compound 10, 4,5α-epoxy-17-[2-((R,S)-tetrahydrofuran-2-yl)methyl]-3-hydroxy-14β-(3-phenylpropyloxy)morphinan-6-one hydrochloride]	170 to 172 °C	
COc1ccc2c(c1O)[C@]13CCN(C)[C@H](C2)[C@]1(O)CCC(=O)[C@H]3C (stereo in doubt)	> 185 °C (dec.)	
CCCCOc1cccc2c1[C@]13CC[N@@H+](CC4CC4)C(C2)[C@]1(OCCCc1ccccc1)CCC(=O)C3.[Cl-] (stereo in doubt)	172 to 177 °C	
COc1ccc2c3c1O[C@@]1(Cc4ccccc4)C(=O)C=C[C@@]4(OC)[C@@H](C2)N(C)CC[C@]314 (stereo in doubt) (as salt: hydrochloride)	164 to 166 °C	
COc1cccc2c1[C@]13CCN(CC4CC4)[C@H](C2)[C@]1(OC)CCC(=O)C3 [Cyprodime, cyprodime, reference compound]		23.7
